Like-named read-outs stand apart in the source and are kept apart here. One block for each compound: values may come before it.
Experiments:
RPMI-8226 cells = assay: Anti-proliferation assay (ATPLite, 72 h), RPMI-8226; assay type: cell-based
[1] = tested on: Farage (non-Hodgkin's B cell lymphoma) cells; assay: Anti-proliferation assay (ATPLite, 72 h), Farage; assay type: cell-based; details: x dexamethasone
MM.1S cells [2] = assay: Anti-proliferation assay (ATPLite, 72 h), MM.1S; details: for activity and synergy in antiproliferation assays: RPMI-8226, H929, MM.1S and MM.1R MM cell lines
H929 cells = assay: Anti-proliferation assay (ATPLite, 72 h), H929; assay type: cell-based
MM.1S cells [3] = tested on: MM.1S cells
[4] = tested on: GA-10 (Burkitt's lymphoma) cells; assay: Anti-proliferation assay (ATPLite, 72 h), GA-10; assay type: cell-based; details: x dexamethasone
[5] = combination with dexamethasone, Loewe-based Synergy Score, 72 h
[6] = Homo sapiens, MM1.S, read-out: IC50 (no IL-6)
[7] = Homo sapiens, MM1.S, read-out: percent inhibition of cell proliferation

- IC50 (MM.1S cells [2]; [6]): 0.838 µM
SMILES: CNC(=O)[C@H]1O[C@@H](n2cnc3c(NCc4cccc(I)c4)nc(Cl)nc32)[C@H](O)[C@@H]1O [Chloro-IB-MECA, 2-chloro-N^6-(3-iodobenzyl)-5′-N-methylcarboxamidoadenosine]
- Synergy score with dexamethasone, RPMI-8226 (RPMI-8226 cells; [5]): 5.61
- synergy score [1]: 3.17
- percent inhibition of cell proliferation (MM.1S cells [2]; Cl-IB-MECA 0.352 nM, DEX 0 nM, MM.1S, 72 h): 16%
- percent inhibition of cell proliferation (MM.1S cells [2]; Cl-IB-MECA 1.06 nM, DEX 0 nM, MM.1S, 72 h): 5.9%
- percent inhibition of cell proliferation (MM.1S cells [2]; Cl-IB-MECA 3.16 nM, DEX 0 nM, MM.1S, 72 h): 6.3%
- percent inhibition of cell proliferation (MM.1S cells [2]; Cl-IB-MECA 9.49 nM, DEX 0 nM, MM.1S, 72 h): 9.1%
- percent inhibition of cell proliferation (MM.1S cells [2]; Cl-IB-MECA 28.5 nM, DEX 0 nM, MM.1S, 72 h): −0.6%
- percent inhibition of cell proliferation (MM.1S cells [2]; Cl-IB-MECA 85.4 nM, DEX 0 nM, MM.1S, 72 h): 6.3%
- percent inhibition of cell proliferation (MM.1S cells [2]; Cl-IB-MECA 256 nM, DEX 0 nM, MM.1S, 72 h): 27%
- percent inhibition of cell proliferation (MM.1S cells [2]; Cl-IB-MECA 769 nM, DEX 0 nM, MM.1S, 72 h): 71%
- activity and synergy in antiproliferation assays (MM.1S cells [2]): active and synergistic
- Synergy score with dexamethasone, MM.1S (MM.1S cells [2]; [5]): 8.37
- Synergy score with dexamethasone, H929 (H929 cells; [5]): 5.29
- Percent inhibition of cell growth by Chloro-IB-MECA (MM.1S cells [3]; Cl-IB-MECA 0.19 μM, 78 nM SCH58261): 5.2%
- Percent inhibition of cell growth by Chloro-IB-MECA (MM.1S cells [3]; Cl-IB-MECA 0.19 μM, 87 nM MRS1523): 19%
- Percent inhibition of cell growth by Chloro-IB-MECA (MM.1S cells [3]; Cl-IB-MECA 0.19 μM, 89 nM DPCPX): 7.4%
- Percent inhibition of cell growth by Chloro-IB-MECA (MM.1S cells [3]; Cl-IB-MECA 0.19 μM, 89 nM MRS1754): 25%
- Percent inhibition of cell growth by Chloro-IB-MECA (MM.1S cells [3]; Cl-IB-MECA 0.19 μM, 150 nM SCH58261): −3.8%
- Percent inhibition of cell growth by Chloro-IB-MECA (MM.1S cells [3]; Cl-IB-MECA 0.19 μM, 170 nM MRS1523): 26%
- Percent inhibition of cell growth by Chloro-IB-MECA (MM.1S cells [3]; Cl-IB-MECA 0.19 μM, 174 nM DPCPX): 12%
- Percent inhibition of cell growth by Chloro-IB-MECA (MM.1S cells [3]; Cl-IB-MECA 0.19 μM, 175 nM MRS1754): 21%
- Percent inhibition of cell growth by Chloro-IB-MECA (MM.1S cells [3]; Cl-IB-MECA 0.19 μM, no antagonist): 20%
- Percent inhibition of cell growth by Chloro-IB-MECA (MM.1S cells [3]; Cl-IB-MECA 1.5 μM, 78 nM SCH58261): 8.1%
- Percent inhibition of cell growth by Chloro-IB-MECA (MM.1S cells [3]; Cl-IB-MECA 1.5 μM, 87 nM MRS1523): 54%
- Percent inhibition of cell growth by Chloro-IB-MECA (MM.1S cells [3]; Cl-IB-MECA 1.5 μM, 89 nM DPCPX): 47%
- Percent inhibition of cell growth by Chloro-IB-MECA (MM.1S cells [3]; Cl-IB-MECA 1.5 μM, 89 nM MRS1754): 50%
- Percent inhibition of cell growth by Chloro-IB-MECA (MM.1S cells [3]; Cl-IB-MECA 1.5 μM, 150 nM SCH58261): 4.3%
- Percent inhibition of cell growth by Chloro-IB-MECA (MM.1S cells [3]; Cl-IB-MECA 1.5 μM, 170 nM MRS1523): 61%
- Percent inhibition of cell growth by Chloro-IB-MECA (MM.1S cells [3]; Cl-IB-MECA 1.5 μM, 174 nM DPCPX): 46%
- Percent inhibition of cell growth by Chloro-IB-MECA (MM.1S cells [3]; Cl-IB-MECA 1.5 μM, 175 nM MRS1754): 45%
- Percent inhibition of cell growth by Chloro-IB-MECA (MM.1S cells [3]; Cl-IB-MECA 1.5 μM, no antagonist): 61%
- Percent inhibition of cell growth by Chloro-IB-MECA (MM.1S cells [3]; Cl-IB-MECA 3.1 μM, 78 nM SCH58261): 28%
- Percent inhibition of cell growth by Chloro-IB-MECA (MM.1S cells [3]; Cl-IB-MECA 3.1 μM, 87 nM MRS1523): 69%
- Percent inhibition of cell growth by Chloro-IB-MECA (MM.1S cells [3]; Cl-IB-MECA 3.1 μM, 89 nM DPCPX): 64%
- Percent inhibition of cell growth by Chloro-IB-MECA (MM.1S cells [3]; Cl-IB-MECA 3.1 μM, 89 nM MRS1754): 71%
- Percent inhibition of cell growth by Chloro-IB-MECA (MM.1S cells [3]; Cl-IB-MECA 3.1 μM, 150 nM SCH58261): 16%
- Percent inhibition of cell growth by Chloro-IB-MECA (MM.1S cells [3]; Cl-IB-MECA 3.1 μM, 170 nM MRS1523): 74%
- Percent inhibition of cell growth by Chloro-IB-MECA (MM.1S cells [3]; Cl-IB-MECA 3.1 μM, 174 nM DPCPX): 60%
- Percent inhibition of cell growth by Chloro-IB-MECA (MM.1S cells [3]; Cl-IB-MECA 3.1 μM, 175 nM MRS1754): 72%
- Percent inhibition of cell growth by Chloro-IB-MECA (MM.1S cells [3]; Cl-IB-MECA 3.1 μM, no antagonist): 70%

SMILES: CNC(=O)[C@H]1O[C@@H](n2cnc3c(NCc4cccc(I)c4)ncnc32)[C@H](O)[C@@H]1O [IB-MECA, N^6-(3-iodobenzyl)-5′-N-methylcarboxamidoadenosine]
- synergy score [1]: 2.91
- activity and synergy in antiproliferation assays (MM.1S cells [2]): active and synergistic
- synergy score [4]: 2.23

SMILES: OC[C@H]1O[C@H](n2cnc3c(NC4CC5CCC4C5)ncnc32)[C@H](O)[C@@H]1O (stereo partly drawn) [(S)-ENBA, S-N^6-(2-endo-norbornyl)adenosine]
- Synergy score with dexamethasone, RPMI-8226 (RPMI-8226 cells): 8.64
- synergy score [1]: 1.37
- Synergy score with dexamethasone, MM.1S (MM.1S cells [2]): 7.30
- percent inhibition of cell proliferation (MM.1S cells [2]; (S)-ENBA 0.173 μM alone): 14%
- percent inhibition of cell proliferation (MM.1S cells [2]; (S)-ENBA 0.519 μM alone): 14%
- percent inhibition of cell proliferation (MM.1S cells [2]; (S)-ENBA 1.56 μM alone): 50%
- percent inhibition of cell proliferation (MM.1S cells [2]; (S)-ENBA 4.67 μM alone): 49%
- percent inhibition of cell proliferation (MM.1S cells [2]; (S)-ENBA 14 μM alone): 62%
- activity and synergy in antiproliferation assays (MM.1S cells [2]): active and synergistic
- IC50 (MM.1S cells [2]; read-out: IC50 (+IL-6), MM.1S cells grown in presence of 10 ng/ml IL-6, 2-fold dilutions): 1.53 µM
- IC50 (MM.1S cells [2]; read-out: IC50 (no IL-6), MM.1S cells grown in absence of IL-6, 2-fold dilutions): 2.27 µM
- Synergy score with dexamethasone, H929 (H929 cells): 7.82
- synergy score [4]: 1.05
- Percent inhibition of cell growth by (S)-ENBA (MM.1S cells [3]; (s)-ENBA 0.17 μM, 78 nM SCH58261): 4.5%
- Percent inhibition of cell growth by (S)-ENBA (MM.1S cells [3]; (s)-ENBA 0.17 μM, 175 nM MRS1754): 9.3%
- Percent inhibition of cell growth by (S)-ENBA (MM.1S cells [3]; (s)-ENBA 0.17 μM, 178 nM DPCPX): 2.4%
- Percent inhibition of cell growth by (S)-ENBA (MM.1S cells [3]; (s)-ENBA 0.17 μM, 183 nM MRS1523): 10%
- Percent inhibition of cell growth by (S)-ENBA (MM.1S cells [3]; (s)-ENBA 0.17 μM, no antagonist): 6%
- Percent inhibition of cell growth by (S)-ENBA (MM.1S cells [3]; (s)-ENBA 0.52 μM, 78 nM SCH58261): 6%
- Percent inhibition of cell growth by (S)-ENBA (MM.1S cells [3]; (s)-ENBA 0.52 μM, 175 nM MRS1754): 10%
- Percent inhibition of cell growth by (S)-ENBA (MM.1S cells [3]; (s)-ENBA 0.52 μM, 178 nM DPCPX): 18%
- Percent inhibition of cell growth by (S)-ENBA (MM.1S cells [3]; (s)-ENBA 0.52 μM, 183 nM MRS1523): 14%
- Percent inhibition of cell growth by (S)-ENBA (MM.1S cells [3]; (s)-ENBA 0.52 μM, no antagonist): 19%
- Percent inhibition of cell growth by (S)-ENBA (MM.1S cells [3]; (s)-ENBA 1.6 μM, 78 nM SCH58261): 14%
- Percent inhibition of cell growth by (S)-ENBA (MM.1S cells [3]; (s)-ENBA 1.6 μM, 175 nM MRS1754): 50%
- Percent inhibition of cell growth by (S)-ENBA (MM.1S cells [3]; (s)-ENBA 1.6 μM, 178 nM DPCPX): 37%
- Percent inhibition of cell growth by (S)-ENBA (MM.1S cells [3]; (s)-ENBA 1.6 μM, 183 nM MRS1523): 36%
- Percent inhibition of cell growth by (S)-ENBA (MM.1S cells [3]; (s)-ENBA 1.6 μM, no antagonist): 41%
- Percent inhibition of cell growth by (S)-ENBA (MM.1S cells [3]; (s)-ENBA 4.7 μM, 78 nM SCH58261): 12%
- Percent inhibition of cell growth by (S)-ENBA (MM.1S cells [3]; (s)-ENBA 4.7 μM, 175 nM MRS1754): 47%
- Percent inhibition of cell growth by (S)-ENBA (MM.1S cells [3]; (s)-ENBA 4.7 μM, 178 nM DPCPX): 77%
- Percent inhibition of cell growth by (S)-ENBA (MM.1S cells [3]; (s)-ENBA 4.7 μM, 183 nM MRS1523): 52%
- Percent inhibition of cell growth by (S)-ENBA (MM.1S cells [3]; (s)-ENBA 4.7 μM, no antagonist): 52%
- Percent inhibition of cell growth by (S)-ENBA (MM.1S cells [3]; (s)-ENBA 14 μM, 78 nM SCH58261): 45%
- Percent inhibition of cell growth by (S)-ENBA (MM.1S cells [3]; (s)-ENBA 14 μM, 175 nM MRS1754): 71%
- Percent inhibition of cell growth by (S)-ENBA (MM.1S cells [3]; (s)-ENBA 14 μM, 178 nM DPCPX): 89%
- Percent inhibition of cell growth by (S)-ENBA (MM.1S cells [3]; (s)-ENBA 14 μM, 183 nM MRS1523): 65%
- Percent inhibition of cell growth by (S)-ENBA (MM.1S cells [3]; (s)-ENBA 14 μM, no antagonist): 68%

- IC50 (MM.1S cells [2]; [6]): 0.623 µM
SMILES: NCCNC(=O)Cc1ccc(NC(=O)Cc2ccc(Nc3ncnc4c3ncn4[C@@H]3O[C@H](CO)[C@@H](O)[C@H]3O)cc2)cc1 [ADAC, N-(4-(2-((4-(2-((2-aminoethyl)amino)-2-oxoethyl)phenyl)amino)-2-oxoethyl)phenyl)-Adenosine]
- synergy score [1]: 2.28
- inhibition at 1.17 µM (MM.1S cells [2]; [7]): 80%
- inhibition at 3.51 µM (MM.1S cells [2]; [7]): 75%
- inhibition at 10.5 µM (MM.1S cells [2]; [7]): 82%
- inhibition at 31.6 µM (MM.1S cells [2]; [7]): 82%
- activity and synergy in antiproliferation assays (MM.1S cells [2]): active and synergistic
- synergy score [4]: 2.43

From patent US20090053168A1, “TREATMENTS OF B-CELL PROLIFERATIVE DISORDERS” (priority 2007, published 2009)
